For this assay, the system named is GUMC-403. The assay is described as follows: viability at highest tested concentration (max response) relative to DMSO (% of DMSO control); higher = less cytotoxic. The following applies: library / dose series: MIPE library, 11-point 1:3 dilution, 48 h. In short, it runs like this: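 Each figure stands for viability at the highest tested concentration compared with vehicle control. It was measured by CellTiter-Glo luminescence on a ViewLux after 48 h of exposure to 23 nL of pinned compound, with vehicle wells taken as 100% and empty wells as 0%. The cells were patient-derived GUMC-403 papilloma cells grown by conditional reprogramming, plated at 700/well in 5 μL F + Y medium in 1536-well plates.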

Here are results for 75 compounds from the supplement of paper PMC6723410.

Structures are written as SMILES.

`CC[C@]12CC[C@H]3[C@@H](CCC/4=C/C(=O)CC[C@H]34)[C@@H]1\C=C/[C@@]2(O)C#C` returned a viability (top concentration 46.1 µM) of 130.

In the case of `C[C@]1(c2nc3c(C(N)=O)cccc3[nH]2)CCCN1`, the viability (top concentration 46.1 µM) stood at 72.9.

`Cc1ccc(NC(=O)c2cccc(N(C)C)c2)cc1NC(=O)c1ccc(O)cc1` had a viability (top concentration 46.1 µM) of 96.6.

Under “top concentration 46.1 µM”, `FC1=CC=C(CN2\C=C/C=C(/C(=O)N[C@@H](COC3=CC4=C(NC(=O)N4)C=C3)C5=CC=CC=C5)C2=O)C=C1F` showed a viability of 103.

`CCCn1c(=O)c2[nH]c(-c3cnn(Cc4cccc(C(F)(F)F)c4)c3)nc2n(CC)c1=O` showed a viability (top concentration 46.1 µM) of 119.

In the case of `CCCCCCCCCCCCc1ccc([S+](=O)([O-])Nc2nncs2)cc1`, the viability (top concentration 46.1 µM) came out at 118.

Under “top concentration 46.1 µM”, `CN[C@H]1CCC2=CC(=C(OC)C(=C2C/3=C/C=C(OC)\C(=O)/C=C13)OC)OC` had a viability of 100.

With `CC[C@H]1/C=C\C=C/C[C@@H](C)[C@H](O)[C@@](C)(O)C(=O)[C@@H](C)[C@H](O)[C@@H](C)C(=O)[C@@H](C)[C@H](O)[C@@H](C)/C=C/C(=O)O[C@@H]2[C@H](C)[C@H](CC1)O[C@]1(CC[C@H](C)[C@H](C[C@@H](C)O)O1)[C@H]2C`, the viability (top concentration 46.1 µM) amounted to 146.

For `Cc1[nH]c(/C=C2\C(=O)Nc3ccccc32)c(C)c1CCC(=O)O`, the viability (top concentration 46.1 µM) was 98.9.

`Cn1cc(/C=C2\C(=O)Nc3cccnc32)c2ccccc21` displayed a viability (top concentration 46.1 µM) of 132.

With `Cn1cnc(-c2cc3nccc(Oc4ccc(NC(=S)NC(=O)Cc5ccccc5)cc4F)c3s2)c1`, the viability (top concentration 46.1 µM) worked out at 96.8.

In turn, `CCN1\C=C(\C(O)=O)C(=O)C2=C1N=C(N3CCNCC3)C(=C2)F` yielded a viability (top concentration 46.1 µM) of 95.7.

Where the note is “top concentration 46.1 µM”, `NNC(=O)c1ccncc1` yielded a viability of 104.

Turning to `Nc1nnc(-c2cccc(Cl)c2Cl)c(N)n1`, where the note is “top concentration 46.1 µM”, the viability turned out to be 82.5.

As for `CO[C@@]12[C@H](COC(N)=O)C/3=C(N1C[C@@H]4N[C@H]24)/C(=O)/C(=C(N)\C3=O)C`, the viability (top concentration 46.1 µM) was 77.

As to `CC(=O)OCC(CCn1cnc2cnc(N)nc21)COC(C)=O`, under “top concentration 46.1 µM”, the viability is 116.

For the compound `NC(=O)c1cccc2nc(-c3ccc([C@H]4CCCN4)cc3F)[nH]c12`, the viability (top concentration 46.1 µM) was 116.

With `CNNCc1ccc(C(=O)NC(C)C)cc1`, where the note is “top concentration 46.1 µM”, the viability came out at 149.

`COc1cc2c(cc1OC)CC(=O)N(CCCN(C)C[C@H]1Cc3cc(OC)c(OC)cc31)CC2.Cl` came in with a viability (top concentration 46.1 µM) of 129.

Regarding `NC/1=N/C(=O)N(/C=C1)[C@H]2CC[C@@H](CO)O2`, under “top concentration 46.1 µM”, the viability is 84.4.

As to `COc1ccc(Cc2nccc3cc(OC)c(OC)cc23)cc1OC`, the viability (top concentration 46.1 µM) was 109.

The compound `CN(C)[C@H]\1[C@@H]2[C@@H](O)[C@@H]\3C(=C)C4=C(C(=CC=C4)O)C(=O)C3=C(\O)[C@@]2(O)C(=O)\C(=C1O)C(N)=O` came in with a viability (top concentration 46.1 µM) of 96.5.

`N#C[C@@H]1C[C@@H]2C[C@@H]2N1C(=O)[C@@H](N)C12CC3CC(CC(O)(C3)C1)C2`: the viability (top concentration 46.1 µM) worked out at 111.

The compound `COC\1=C(/OC)C(=O)\C(=C(C)/C1=O)CCCCCCCCCCO` showed a viability (top concentration 46.1 µM) of 112.

For `CN1CCN2c3ncccc3Cc3ccccc3C2C1` (stereo not given), the viability (top concentration 46.1 µM) is 101.

Take `CC(=O)OC[C@@H]1O[C@H]([C@H](OC(C)=O)[C@@H]1OC(C)=O)N2\C=C/C(=O)NC2=O`: the viability (top concentration 46.1 µM) came to 110.

Under “top concentration 92.2 µM”, `O=c1[nH]c(=O)n(C2CCCO2)cc1F` (stereo not given) had a viability of 104.

For `C[S+](=O)([O-])c1cccc(CNc2nc(Nc3ccc4c(c3)CCC(=O)N4)ncc2C(F)(F)F)c1`, where the note is “top concentration 46.1 µM”, the viability came out at 66.8.

For the setting “top concentration 46.1 µM”, `CC(C)(O)CC(=O)NCCn1ccc2ncnc(Nc3ccc(Oc4cccc(C(F)(F)F)c4)c(Cl)c3)c21` returned a viability of 71.7.

The compound `CN(C)Cc1c(C(=O)NCCOc2ccc(C(=O)NO)cc2)oc2ccccc12` came in with a viability (top concentration 46.1 µM) of 82.5.

`COc1ccc2cccc(CCNC(C)=O)c2c1` showed a viability (top concentration 46.1 µM) of 108.

With `COc1cc([C@@H]2c3cc4c(cc3[C@@H](O[C@@H]3O[C@@H]5CO[C@@H](C)O[C@H]5[C@H](O)[C@H]3O)[C@H]3COC(=O)[C@H]23)OCO4)cc(OC)c1O`, where the note is “top concentration 46.1 µM”, the viability came to 124.

In turn, `CN(C)CC(C)(C)CNc1nn2c(-c3ccccc3)nnc2cc1C1CCC1` registered a viability (top concentration 46.1 µM) of 108.

For the compound `Cc1cc(Nc2cc(N3CCN(C)CC3)nc(/C=C/c3ccccc3)n2)n[nH]1`, the viability (top concentration 92.2 µM) amounted to 54.1.

Under “top concentration 46.1 µM”, `Cc1nnc(C(C)C)n1[C@@H]1C[C@H]2CC[C@@H](C1)N2CC[C@H](NC(=O)C1CCC(F)(F)CC1)c1ccccc1` had a viability of 140.

Consider `Cc1csc(NC(=O)c2sc3nc4c(c(C(F)(F)F)c3c2N)CCC4)n1`, for which the viability (top concentration 46.1 µM) is 94.1.

Turning to `C[C@@H]1[C@H]\2[C@H](O)[C@H]3[C@H](N(C)C)\C(=C(C(N)=O)/C(=O)[C@@]3(O)\C(=C2C(=O)C4=C(O)C=CC=C14)O)O`, where the note is “top concentration 46.1 µM”, the viability was 98.3.

In the case of `Cc1cc(Nc2cc(CN3CCOCC3)c3nc(C)c(Cc4ccc(Cl)cc4F)n3n2)[nH]n1`, the viability (top concentration 46.1 µM) worked out at 74.1.

In the case of `F\C1=C\NC(=O)NC1=O`, the viability (top concentration 46.1 µM) was found to be 109.

Regarding `ClC1=C(N\C2=N\CCN2)C3=NSN=C3C=C1`, the viability (top concentration 46.1 µM) was found to be 129.

Consider `CCCCCCNC(=O)N1\C=C(F)/C(=O)NC1=O`, for which the viability (top concentration 46.1 µM) is 106.

In turn, `C[S+]([O-])(=O)C1=CC=C(C=C1)C/2=C(/C(=O)OC2)C3=CC=CC=C3` returned a viability (top concentration 46.1 µM) of 122.

`C[S+]([O-])c1ccc(-c2nc(-c3ccc(F)cc3)c(-c3ccncc3)[nH]2)cc1` (stereo not given) showed a viability (top concentration 92.2 µM) of 71.3.

Compound `O=C(O)CCC1CCC(c2cc(F)ccc2F)([S+](=O)([O-])c2ccc(Cl)cc2)CC1` (stereo not given) had a viability (top concentration 46.1 µM) of 99.9.

The compound `CN(C)CCCN\C1=C\2C(=O)N(C)C(=O)\N=C2N(C)C3=C1C=CC=C3` showed a viability (top concentration 46.1 µM) of 107.

For `CC1COC2=C3N1\C=C(C(O)=O)/C(=O)C3=CC(=C2N4CCN(C)CC4)F` (stereo not given), the viability (top concentration 46.1 µM) turned out to be 105.

For `NC(=O)c1ccc(-c2nc(-c3ccc4c(c3)OCO4)c(-c3ccccn3)[nH]2)cc1`, the viability (top concentration 46.1 µM) was 126.

In turn, `CC(=O)NC(CS)C(=O)O` (stereo not given) showed a viability (top concentration 46.1 µM) of 91.1.

Under “top concentration 46.1 µM”, `NC(CO)C(=O)NNCc1ccc(O)c(O)c1O` (stereo not given) returned a viability of 96.3.

On to `C[C@@H](Oc1cc(-n2cnc3ccc(CN4CCN(C)CC4)cc32)sc1C(N)=O)c1ccccc1C(F)(F)F`, for which the viability (top concentration 46.1 µM) is 47.4.

`COc1cc(Nc2ncc(F)c(Nc3ccc4c(n3)NC(=O)C(C)(C)O4)n2)cc(OC)c1OC` returned a viability (top concentration 46.1 µM) of 89.6.

The compound `O=C(NCc1ccccc1)[C@H](Cc1ccccc1)NC(=O)[C@H]1O[C@@H]1C(=O)NCCc1ccc(O)cc1` gave a viability (top concentration 46.1 µM) of 107.

Consider `NC(=O)c1noc([C@H](CCCC2CCCCC2)CC(=O)NO)n1`, for which, where the note is “top concentration 46.1 µM”, the viability amounted to 118.

For `CC\1=C/C=C\C=[N]1[Pt](N)(Cl)Cl`, the viability (top concentration 46.1 µM) was found to be 136.

Turning to `COc1ccc(OC)c(-c2nnc3ccc(-c4ccc(OC)c(O[C@@H]5CCOC5)c4)nn23)c1`, the viability (top concentration 46.1 µM) was 4.61.

As for `CC(C)(C)/[N+]([O-])=C/c1ccc([S+](=O)([O-])[O][Na])cc1[S+](=O)([O-])[O][Na]`, the viability (top concentration 46.1 µM) is 84.5.

On to `CC[C@@H]1/C=C(\C)C[C@H](C)C[C@H](OC)[C@H]2O[C@@](O)(C(=O)C(=O)N3CCCC[C@H]3C(=O)O[C@H](/C(C)=C/[C@@H]3CC[C@H](Cl)[C@H](OC)C3)[C@H](C)[C@@H](O)CC1=O)[C@H](C)C[C@@H]2OC`, for which the viability (top concentration 46.1 µM) stood at 63.6.

In turn, `CC(NC1=CC=CC=C1)C\2=C\C(=C/N3C(=O)\C=C(/N=C23)N4CCOCC4)C` (stereo not given) showed a viability (top concentration 46.1 µM) of 79.7.

As for `CCN1\C=C(\C(O)=O)C(=O)C2=CC=C(C)N=C12`, under “top concentration 46.1 µM”, the viability turned out to be 92.

Where the note is “top concentration 46.1 µM”, `CO[C@H]1C[C@@H]2CC[C@@H](C)[C@@](O)(O2)C(=O)C(=O)N2CCCC[C@H]2C(=O)O[C@H]([C@H](C)C[C@@H]2CC[C@@H](OCCO)[C@H](OC)C2)CC(=O)[C@H](C)/C=C(/C)[C@@H](O)[C@@H](OC)C(=O)[C@H](C)C[C@H](C)\C=C/C=C\C=C/1C` returned a viability of 84.8.

Where the note is “top concentration 46.1 µM”, `C\C1=C\N([C@H]2C[C@H](N=[N+]=[N-])[C@@H](CO)O2)C(=O)NC1=O` came in with a viability of 113.

The compound `CC(C)(C)OC(=O)N[C@H]1CCCCC/C=C\[C@@H]2C[C@@]2(C(=O)N[S+](=O)([O-])C2CC2)NC(=O)[C@@H]2C[C@@H](OC(=O)N3Cc4cccc(F)c4C3)CN2C1=O` came in with a viability (top concentration 46.1 µM) of 138.

`Cc1ccc(/C=N/NC(=O)c2ccccc2Oc2ccccc2)o1` returned a viability (top concentration 46.1 µM) of 92.

Take `O=C(Nc1cccc(Br)c1)c1cccc([S+](=O)([O-])N2CCCCCC2)c1`: the viability (top concentration 46.1 µM) is 111.

Turning to `Fc1ccc([C@@H]2CCNC[C@H]2COc2ccc3c(c2)OCO3)cc1`, the viability (top concentration 46.1 µM) stood at 97.2.

On to `Nc1ncnc2ccccc12`, for which the viability (top concentration 46.1 µM) turned out to be 127.

In the case of `COc1cc2c(cc1OC)C1CC(=O)C(CC(C)C)CN1CC2` (stereo not given), the viability (top concentration 46.1 µM) is 110.

`O=C(OCC#CCSc1nnc(-c2cccc3ccccc23)o1)c1cc2ccccc2s1` displayed a viability (top concentration 46.1 µM) of 102.

For `C=C(C)[C@@H]1CC[C@]2(C)CC[C@]3(C)[C@H](CC[C@@H]4[C@@]5(C)CC[C@H](O)C(C)(C)[C@@H]5CC[C@]43C)[C@@H]12`, for the setting “top concentration 46.1 µM”, the viability is 135.

Where the note is “top concentration 46.1 µM”, `CC[C@@]1(O)C(=O)OCC/2=C1/C=C3\N(CC4=CC5=CC(=CC=C5N=C34)O)C2=O` gave a viability of 42.5.

`C[C@H](NC(=O)/C(C#N)=C/c1cccc(Br)n1)c1ccccc1`: for the setting “top concentration 46.1 µM”, the viability stood at 31.7.

`OC(CCN1CCCCC1)(C2CC\3CC2\C=C3)C4=CC=CC=C4` (stereo not given) displayed a viability (top concentration 46.1 µM) of 136.

Take `CCCCCCCCc1ccc(CCC(N)(CO)CO)cc1`: the viability (top concentration 46.1 µM) came to 90.9.

Consider `COC1CCC(C(=O)c2ccc3nc4c(cc3c2)CCCO4)CC1` (stereo not given), for which the viability (top concentration 46.1 µM) is 89.8.

Under “top concentration 46.1 µM”, `CCc1ccc(CCOc2ccc(CC3SC(=O)NC3=O)cc2)nc1` (stereo not given) showed a viability of 103.
